As usually defined, the IC50 is the concentration needed to halve the response being measured.

This note sets out measurements from US9828375B2, “4-position substituted pyrazolopyrimidine derivative, and use thereof in drug preparation” (Guangxi Wuzhou Pharmaceuticals (Group) Co., Ltd., priority 2012, dated 2017).

Common to all, as to assay type: biochemical
The target of one assay is EphA2 (Homo sapiens, UniProt P29317). The assay is described as follows: Kinase inhibition activity test, isotope labeling: EphA2. To be noted: ATP 155 μM; read-out: EphA2 IC50 value (inhibitory activity value). As to the method: (§1) The purpose of this experiment was to test the inhibitory activity of the compound of the invention for in vitro kinase with the isotope labeling method (the γ phosphate group on ATP was labeled). In this experiment, the in vitro activity inhibition of such kinases as FLT3, VEGFR2, FLT1, FLT4, RET, c-RAF, B-RAF, c-KIT, PDGFα, PDGFβ, FGFR2, FGFR1, EphA2, EphB2, SRC, ABL, ALK and Met was tested respectively. Staurosporine was reference molecule (or referred to as positive control). The kinase inhibition activity of the test compound was expressed by half-inhibitory concentration (IC50) or the kinase activity inhibition rate of the test compound at a concentration of 10 μM. The IC50 value could be obtained by calculating the kinase activity inhibition rate of the test compound at different concentrations.
EphA2, sequence (P29317 24-976): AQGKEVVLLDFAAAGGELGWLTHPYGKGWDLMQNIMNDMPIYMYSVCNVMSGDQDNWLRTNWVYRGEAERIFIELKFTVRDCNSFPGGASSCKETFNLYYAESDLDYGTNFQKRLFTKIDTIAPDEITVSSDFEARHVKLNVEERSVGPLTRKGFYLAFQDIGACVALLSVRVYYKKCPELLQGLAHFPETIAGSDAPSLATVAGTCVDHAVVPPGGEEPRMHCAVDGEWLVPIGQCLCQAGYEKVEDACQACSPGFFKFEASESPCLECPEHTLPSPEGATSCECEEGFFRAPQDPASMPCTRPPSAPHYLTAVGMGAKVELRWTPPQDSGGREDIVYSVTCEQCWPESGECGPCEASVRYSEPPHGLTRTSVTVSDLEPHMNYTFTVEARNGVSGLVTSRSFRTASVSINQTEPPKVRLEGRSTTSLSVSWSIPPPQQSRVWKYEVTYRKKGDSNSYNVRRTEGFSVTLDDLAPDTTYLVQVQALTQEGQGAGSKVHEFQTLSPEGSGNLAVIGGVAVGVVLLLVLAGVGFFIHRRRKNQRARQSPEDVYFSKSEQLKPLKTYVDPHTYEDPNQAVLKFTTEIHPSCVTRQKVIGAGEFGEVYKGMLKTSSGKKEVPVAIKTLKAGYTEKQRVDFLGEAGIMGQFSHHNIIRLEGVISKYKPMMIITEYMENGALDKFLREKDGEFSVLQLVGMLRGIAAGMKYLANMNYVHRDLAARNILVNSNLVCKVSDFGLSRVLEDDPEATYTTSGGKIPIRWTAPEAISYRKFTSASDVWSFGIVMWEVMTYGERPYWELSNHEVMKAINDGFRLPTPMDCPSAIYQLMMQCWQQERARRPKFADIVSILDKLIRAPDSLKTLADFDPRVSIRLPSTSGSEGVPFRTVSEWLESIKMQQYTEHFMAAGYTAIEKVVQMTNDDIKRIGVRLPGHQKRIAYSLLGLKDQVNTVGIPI
(§2) 20 mM 3-(N-morpholinyl)propanesulfonic acid (MOPS); 1 mM ethylenediaminetetraacetic acid (EDTA), 0.01% Brij 35 (Brij-35), 5% glycerol, 0.1% mercaptoethanol, 1 mg/mL bovine serum albumin (BSA), 10 mM manganous dichloride solution (MnCl2), 0.1 mg/mL glutamic acid/tyrosine (4:1) polypeptide (poly(Glu, Tyr)4:1), 50 μM EAIYAAPFAKKK (substrate of FLT3), 0.33 mg/mL myelin basic protein (substrate of VEGFR2), 250 μM KKKSPGEYVNIEFG (substrate of FLT1(h)), 500 μM GGEEEEYFELVKKKK (substrate of FLT4(h)), 250 μM KKKSPGEYVNIEFG (substrate of RET), 0.66 mg/mL myelin basic protein (substrate of C-RAF), 250 μM GGMEDIYFEFMGGKKK (substrate of c-Kit), 250 μM GGMEDIYFEFMGGKKK (substrate of PDGFα), 250 μM KKKSPGEYVNIEFG (substrate of FGFR1), […] GGEEEEYFELVKKKK (substrate of SRC), 50 μM EAIYAAPFAKKK (substrate of ABL), 250 μM KKKSPGEYVNIEFG (substrate of ALK), 250 μM KKKSPGEYVNIEFG (substrate of Met(h)), 10 mM magnesium acetate and γ-^33 P-ATP solution, stop buffer (3% phosphate buffer), washing buffer (75 mM phosphate solution), methanol, Filtermat A membrane, FLT3, VEGFR2, FLT3, VEGFR2, FLT1, FLT4, RET, c-RAF, B-RAF, c-KIT, PDGFRα, PDGFRβ, FGFR2, FGFR1, EphA2, EphB2, SRC, ABL, ALK, Met and other kinases, and the test compounds.
(§3) Buffers (8 mM MOPS with pH value of 7.0, 0.2 mM EDTA and 10 mM MnCl2), (5-10 mU) kinases to be tested (FLT3, VEGFR2, FLT1, FLT4, RET, c-RAF, B-RAF, c-KIT, PDGFRα, PDGFRβ, FGFR2, FGFR1, EphA2, EphB2, SRC, ABL, ALK and Met), substrates of kinases to be tested (refer to experimental materials), 10 mM magnesium acetate and γ-^33 P-ATP solution, and test compounds at different concentrations were added to a reaction tube orderly. […] Reaction was terminated with 5 μL 3% phosphate buffer finally, and 10 μL reaction solution was titrated to the Filtermat A membrane; solution was washed for 3 times with 75 mM phosphate solution with each time lasting 5 minutes, and then washed once with methanol. […]

Another assay addresses FLT4 (Homo sapiens, UniProt P35916). The assay is described as follows: Kinase inhibition activity test, isotope labeling: FLT4. To be noted: ATP 200 μM; read-out: FLT4 IC50 value (inhibitory activity value). The method, then: as §1, §2, §3
In the next assay the target is c-RAF (Homo sapiens, UniProt P04049). Nature of the assay: Kinase inhibition activity test, isotope labeling: c-RAF. To be noted: ATP 45 μM; read-out: c-RAF IC50 value (inhibitory activity value). As to the method: as §1, §2, §3
c-RAF, sequence (P04049 whole entry): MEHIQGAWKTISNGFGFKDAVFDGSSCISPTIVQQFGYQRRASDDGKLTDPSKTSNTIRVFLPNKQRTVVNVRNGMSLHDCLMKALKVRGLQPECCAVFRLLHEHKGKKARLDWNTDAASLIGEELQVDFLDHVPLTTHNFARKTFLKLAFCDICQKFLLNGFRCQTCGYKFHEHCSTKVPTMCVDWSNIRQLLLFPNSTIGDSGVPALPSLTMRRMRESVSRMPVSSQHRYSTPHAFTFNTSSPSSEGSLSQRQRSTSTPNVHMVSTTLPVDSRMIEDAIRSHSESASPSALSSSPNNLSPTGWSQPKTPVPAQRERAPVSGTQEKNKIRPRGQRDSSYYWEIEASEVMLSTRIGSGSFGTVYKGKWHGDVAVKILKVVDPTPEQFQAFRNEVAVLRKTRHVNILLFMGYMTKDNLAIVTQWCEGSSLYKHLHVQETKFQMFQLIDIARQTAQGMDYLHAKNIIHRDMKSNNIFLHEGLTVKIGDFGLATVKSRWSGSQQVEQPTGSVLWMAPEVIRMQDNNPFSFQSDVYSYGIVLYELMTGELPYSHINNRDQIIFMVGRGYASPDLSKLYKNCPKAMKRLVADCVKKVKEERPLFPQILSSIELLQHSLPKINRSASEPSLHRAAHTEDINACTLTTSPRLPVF
A further assay concerns the target SRC (Homo sapiens, UniProt P12931). Nature of the assay: Kinase inhibition activity test, isotope labeling: SRC. The settings on record: ATP 45 μM; read-out: SRC IC50 value (inhibitory activity value). As to the method: as §1, §2, §3
The target of a further assay is T1, EphB2 (Homo sapiens, UniProt P29323).
T1 sequence (P29323 19-1055): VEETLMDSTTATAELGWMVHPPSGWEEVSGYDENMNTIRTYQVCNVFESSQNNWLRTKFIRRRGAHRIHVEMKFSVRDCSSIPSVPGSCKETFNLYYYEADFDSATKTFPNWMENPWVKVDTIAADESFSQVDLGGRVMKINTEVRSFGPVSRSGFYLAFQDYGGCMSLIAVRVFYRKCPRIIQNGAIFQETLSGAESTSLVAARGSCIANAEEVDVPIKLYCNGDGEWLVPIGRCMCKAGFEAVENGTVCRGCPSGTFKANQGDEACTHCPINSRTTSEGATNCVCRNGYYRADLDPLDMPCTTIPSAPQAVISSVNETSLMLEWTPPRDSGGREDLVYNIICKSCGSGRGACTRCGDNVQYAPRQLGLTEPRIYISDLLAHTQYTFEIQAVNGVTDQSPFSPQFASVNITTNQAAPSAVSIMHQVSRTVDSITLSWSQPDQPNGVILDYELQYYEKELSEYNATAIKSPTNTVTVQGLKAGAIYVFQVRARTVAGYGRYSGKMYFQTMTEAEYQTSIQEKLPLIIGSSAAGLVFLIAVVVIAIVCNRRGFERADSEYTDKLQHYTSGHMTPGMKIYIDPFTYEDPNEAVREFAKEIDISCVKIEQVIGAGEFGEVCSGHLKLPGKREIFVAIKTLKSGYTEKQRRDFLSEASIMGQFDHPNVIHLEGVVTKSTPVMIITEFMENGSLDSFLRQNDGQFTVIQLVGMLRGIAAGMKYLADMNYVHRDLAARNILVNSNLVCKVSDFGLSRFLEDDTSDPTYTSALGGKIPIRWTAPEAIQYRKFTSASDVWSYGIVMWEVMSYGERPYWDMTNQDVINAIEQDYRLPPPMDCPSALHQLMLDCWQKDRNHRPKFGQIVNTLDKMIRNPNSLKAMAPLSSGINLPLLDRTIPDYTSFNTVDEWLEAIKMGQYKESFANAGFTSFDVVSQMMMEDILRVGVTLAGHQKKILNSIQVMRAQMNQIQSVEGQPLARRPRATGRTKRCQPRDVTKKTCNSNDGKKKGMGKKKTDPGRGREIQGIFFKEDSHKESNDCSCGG
The assay is described as follows: Kinase inhibition activity test, isotope labeling: EphB2. To be noted: ATP 10 μM; read-out: EphB2 IC50 value (inhibitory activity value). As to the method:
as §1, §2, §3

The next assay has as its target FLT1 (Homo sapiens, UniProt P17948). The assay is described as follows: Kinase inhibition activity test, isotope labeling: FLT1. To be noted: ATP 200 μM; read-out: FLT1 IC50 value (inhibitory activity value). The method, then:
as §1, §2, §3

The structures appear in SMILES notation. Some results are limits rather than exact numbers.

FLT1, sequence (P17948 27-1338): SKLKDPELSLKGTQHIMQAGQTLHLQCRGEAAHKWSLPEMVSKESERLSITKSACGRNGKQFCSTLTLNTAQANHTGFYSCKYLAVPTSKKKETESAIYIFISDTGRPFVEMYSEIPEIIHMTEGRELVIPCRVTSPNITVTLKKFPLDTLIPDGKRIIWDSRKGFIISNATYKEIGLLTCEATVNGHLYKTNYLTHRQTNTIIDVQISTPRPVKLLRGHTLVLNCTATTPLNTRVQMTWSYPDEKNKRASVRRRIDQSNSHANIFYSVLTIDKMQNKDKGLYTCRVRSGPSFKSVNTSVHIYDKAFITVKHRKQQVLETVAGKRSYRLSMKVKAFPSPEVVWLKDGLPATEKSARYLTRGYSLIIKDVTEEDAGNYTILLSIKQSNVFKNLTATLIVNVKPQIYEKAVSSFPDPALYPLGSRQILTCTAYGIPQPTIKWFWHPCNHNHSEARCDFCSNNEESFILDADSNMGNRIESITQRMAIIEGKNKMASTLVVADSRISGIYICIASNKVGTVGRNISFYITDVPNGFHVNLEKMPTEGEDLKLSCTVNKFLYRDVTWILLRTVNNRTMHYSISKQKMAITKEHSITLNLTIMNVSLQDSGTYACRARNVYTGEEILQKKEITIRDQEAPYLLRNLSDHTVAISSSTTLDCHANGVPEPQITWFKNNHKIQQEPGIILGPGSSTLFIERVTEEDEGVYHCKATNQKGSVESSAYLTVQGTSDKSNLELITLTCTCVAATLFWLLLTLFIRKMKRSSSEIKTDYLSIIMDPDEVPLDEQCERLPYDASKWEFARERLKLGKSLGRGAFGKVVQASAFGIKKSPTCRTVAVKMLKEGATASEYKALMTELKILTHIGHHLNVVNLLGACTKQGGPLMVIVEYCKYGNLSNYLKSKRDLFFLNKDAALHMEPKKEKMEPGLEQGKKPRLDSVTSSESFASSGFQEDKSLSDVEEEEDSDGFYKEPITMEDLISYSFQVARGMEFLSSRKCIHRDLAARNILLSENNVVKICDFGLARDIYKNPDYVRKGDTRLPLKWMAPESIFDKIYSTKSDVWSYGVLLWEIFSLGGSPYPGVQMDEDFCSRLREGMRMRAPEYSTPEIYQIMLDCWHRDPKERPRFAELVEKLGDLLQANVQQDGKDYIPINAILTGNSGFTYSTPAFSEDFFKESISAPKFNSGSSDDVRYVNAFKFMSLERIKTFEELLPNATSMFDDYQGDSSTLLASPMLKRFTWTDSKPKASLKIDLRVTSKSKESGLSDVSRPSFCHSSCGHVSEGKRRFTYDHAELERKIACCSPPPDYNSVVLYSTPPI
FLT4, sequence (P35916 25-1363): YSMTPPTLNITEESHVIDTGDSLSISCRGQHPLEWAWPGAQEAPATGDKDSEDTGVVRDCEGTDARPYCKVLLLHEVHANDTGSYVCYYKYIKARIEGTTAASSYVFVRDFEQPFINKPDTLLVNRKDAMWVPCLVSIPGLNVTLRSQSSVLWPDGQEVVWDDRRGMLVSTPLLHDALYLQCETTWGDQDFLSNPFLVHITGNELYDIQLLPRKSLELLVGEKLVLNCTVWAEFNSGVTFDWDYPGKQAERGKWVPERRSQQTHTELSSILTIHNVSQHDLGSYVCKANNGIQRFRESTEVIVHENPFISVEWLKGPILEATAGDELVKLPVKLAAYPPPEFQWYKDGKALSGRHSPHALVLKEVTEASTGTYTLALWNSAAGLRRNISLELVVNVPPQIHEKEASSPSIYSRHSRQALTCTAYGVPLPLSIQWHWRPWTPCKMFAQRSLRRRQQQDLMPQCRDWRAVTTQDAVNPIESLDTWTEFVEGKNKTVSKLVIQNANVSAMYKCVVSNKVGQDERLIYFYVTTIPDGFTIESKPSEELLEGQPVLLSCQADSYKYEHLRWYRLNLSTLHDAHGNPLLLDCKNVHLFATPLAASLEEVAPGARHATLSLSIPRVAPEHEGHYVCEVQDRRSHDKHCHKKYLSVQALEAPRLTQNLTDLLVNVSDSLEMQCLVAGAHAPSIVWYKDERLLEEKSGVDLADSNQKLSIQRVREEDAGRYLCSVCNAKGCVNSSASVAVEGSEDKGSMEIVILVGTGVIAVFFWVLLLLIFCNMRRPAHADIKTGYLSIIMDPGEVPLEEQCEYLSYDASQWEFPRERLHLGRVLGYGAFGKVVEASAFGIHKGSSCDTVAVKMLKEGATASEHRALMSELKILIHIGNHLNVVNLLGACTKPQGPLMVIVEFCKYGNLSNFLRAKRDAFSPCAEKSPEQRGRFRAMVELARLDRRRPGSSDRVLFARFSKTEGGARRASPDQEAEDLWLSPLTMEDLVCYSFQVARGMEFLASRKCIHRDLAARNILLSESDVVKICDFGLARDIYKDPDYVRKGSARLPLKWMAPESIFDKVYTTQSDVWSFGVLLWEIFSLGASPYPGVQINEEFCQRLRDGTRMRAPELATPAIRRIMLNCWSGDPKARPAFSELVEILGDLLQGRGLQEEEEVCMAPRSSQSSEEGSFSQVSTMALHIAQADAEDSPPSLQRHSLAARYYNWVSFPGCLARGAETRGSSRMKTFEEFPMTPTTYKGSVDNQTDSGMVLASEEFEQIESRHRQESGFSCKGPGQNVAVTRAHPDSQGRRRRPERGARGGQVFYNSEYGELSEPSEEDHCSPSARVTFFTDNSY
SRC, sequence (P12931 whole entry): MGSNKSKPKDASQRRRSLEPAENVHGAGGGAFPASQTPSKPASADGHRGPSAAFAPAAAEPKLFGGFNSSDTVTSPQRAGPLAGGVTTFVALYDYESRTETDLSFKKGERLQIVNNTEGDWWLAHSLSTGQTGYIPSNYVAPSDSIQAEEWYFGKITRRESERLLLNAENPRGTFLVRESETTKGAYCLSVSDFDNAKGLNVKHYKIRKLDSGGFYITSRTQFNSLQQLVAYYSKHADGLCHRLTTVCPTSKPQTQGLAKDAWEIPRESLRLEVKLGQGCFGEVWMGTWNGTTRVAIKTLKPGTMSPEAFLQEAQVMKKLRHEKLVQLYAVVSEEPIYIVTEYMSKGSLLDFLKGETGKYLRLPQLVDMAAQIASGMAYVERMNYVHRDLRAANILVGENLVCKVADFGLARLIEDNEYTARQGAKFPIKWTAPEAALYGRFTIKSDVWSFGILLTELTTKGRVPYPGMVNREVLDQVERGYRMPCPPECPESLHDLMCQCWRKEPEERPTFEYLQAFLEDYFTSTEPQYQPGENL

`O=C(Nc1ccc(Oc2ncnc3[nH]ncc23)cc1)Nc1ccc(Cl)c(C(F)(F)F)c1` [4a-2]: the half-maximal inhibitory concentration (IC50) on EphA2 was under 10 µM; at FLT4, under 10 µM; at c-RAF, 0.072 µM; on SRC it was under 10 µM; on EphB2 it was under 10 µM; at FLT1, under 10 µM.

As for `O=C(Nc1ccc(Oc2ncnc3[nH]ncc23)cc1)Nc1cccc(C(F)(F)F)c1` [4a-6], the IC50 on EphA2 was 0.056 µM; at FLT4, 0.005 µM; on c-RAF it was 0.082 µM; on SRC it was 3.01 µM; on EphB2, 0.138 µM; at FLT1, 0.005 µM.

Consider `CC(C)(C)c1cc(NC(=O)Nc2ccc(Oc3ncnc4[nH]ncc34)cc2)on1` [4a-25], for which the IC50 on EphA2 is under 10 µM; on FLT4 it was under 10 µM; on c-RAF, 0.053 µM; at SRC it was under 10 µM; on EphB2, under 10 µM; at FLT1, under 10 µM.

For the molecule `CC(C)(C)c1cc(NC(=O)Nc2ccc(Oc3ncnc4[nH]ncc34)c(F)c2)no1` [4a-31], the IC50 is under 10 µM on EphA2; under 10 µM on FLT4; 0.046 µM on c-RAF; under 10 µM at SRC; under 10 µM on EphB2; under 10 µM at FLT1.
